# Assay results as given in article PMC5449454, “Anti-Double-Stranded DNA IgG Participates in Renal Fibrosis through Suppressing the Suppressor of Cytokine Signaling 1 Signals” (Frontiers in Immunology, 2017).
# Experiments:
# [1] = system: anti-dsDNA IgG binding to SOCS1-KIR peptide; experiment: Inhibition ELISA, anti-dsDNA IgG binding to SOCS1-KIR peptide; parameters: species or system murine; settings: anti-dsDNA IgG 2 µg/ml pre-incubated with serially diluted peptide (0.04 to 80 µg/ml); three independent experiments
# Method: Common ELISAs (for binding to dsDNA or peptide) and inhibition ELISAs were performed as previously described ([8], [35]). Briefly, the KIR ELISA was carried out by adding biotinylated KIR peptide (DTHFRTFRSHSDYRRI, 5 µg/ml) to streptavidin-coated 96-well plates. For inhibition with KIR (or ALW) peptide, anti-dsDNA IgG (2 µg/ml) was pre-incubated with serially diluted peptide (from 0.04 to 80 µg/ml), and then transferred to antigen-coated 96-well plates. Alkaline phosphatase-conjugated goat anti-mouse IgG (2 µg/ml; Southern Biotech) was used as secondary antibody. Similarly, for inhibition with anti-dsDNA IgG, the FITC-labeled JAK2 loop peptide (LPQDKEYYKVKEP, 0.2 µg/ml) was pre-incubated with serially diluted anti-dsDNA IgG (from 0.02 to 20 µg/ml) before transfer to KIR-coated plates, which were detected for fluorescein intensity under a Perkin Elmer Reader (Winpact Scientific, Irvine, CA, USA). Cell surface ELISA was performed by growing mesangial cells in 96-well plates ([8], [35]). All peptides were synthesized by Sangon Biotech Company (Shanghai, China).
# [2] = system: SOCS1, JAK2 and STAT1 in mesangial cells; experiment: SOCS1/JAK2/STAT1 proteins (IF, Western blotting), mesangial cells; assay type: cell-based, murine; settings: anti-dsDNA IgG 2 µg/ml premixed with peptide 1 µg/ml, 2 days
# Method: Immunofluorescence was carried out for both IgG deposition and SOCS1 expression in frozen sections. Routinely processed sections were incubated with rabbit anti-mouse SOCS1 and then fluorescein isothiocyanate (FITC)-conjugated goat anti-rabbit IgG (2 µg/ml; Southern Biotech, Birmingham, AL, USA) in order, or directly with goat anti-mouse IgG-FITC (Southern Biotech) alone. Sections were viewed under a digital fluorescent microscope (Carl Zeiss, Jena, Germany).
# (§1) Immortal murine mesangial cells and glomerular endothelial cells (Jieqing Biotech, Wuhan, China) were cultured in RPMI 1640 medium supplemented with 10% fetal bovine serum ([8], [33]). Immortal murine proximal tubular epithelial cells (kindly provided by Dr. Cheng Pan, Wuhan University, China) were cultured in Dulbecco’s modified Eagle’s medium as described previously ([34]).
# (§2) By using a HiTrap purification kit (GE Healthcare, Port Washington, NY, USA) ([8]), anti-dsDNA IgG was purified from the culture supernatants of murine WJ31 hydridoma clone (IgG2a; Jieqing Biotech). Control murine IgG (IgG2a; Jieqing Biotech) was verified by enzyme-linked immunosorbent assay (ELISA) to determine that there was no binding to DNA antigen (data not shown). Cells were starved routinely before the 2-day stimulation of anti-dsDNA IgG or control IgG (2 µg/ml). In some experiments, mesangial cells were stimulated with anti-dsDNA IgG (2 µg/ml) that was premixed with D-form (ALWPPNLHAWVP) or scrambled (PLPHNPWVLAAW) ALW peptide (1 µg/ml). The cell viability of three types of cells was measured using PrestoBlue viability reagent (Life Technologies, Carlsbad, CA, USA).
# (§3) Fresh tissues and cell cultures were extracted for lysates with the addition of protease inhibitor cocktail (Thermo Scientific, Waltham, MA, USA). […] The band intensities were quantitated by ImageJ 1.61u software (National Institutes of Health, Bethesda, MD, USA) and normalized to β-actin values accordingly. The intensities of blank groups were set as 1 (baseline), and the relative intensities were calculated in other groups.
# [3] = system: SOCS1, JAK2 and STAT1 in kidneys of SCID mice; experiment: Renal SOCS1/JAK2/STAT1 proteins by Western blotting, SCID mice; assay type: in vivo; settings: i.v., n = 5, versus anti-dsDNA IgG alone
# From the text: Renal biopsies were obtained from patients with LN (n = 7), who had serum positivity of anti-dsDNA IgG (Table S1 in Supplementary Material). The diagnosis of LN was made based on the histological features of renal biopsies. For normal human controls, sera and non-lesional tissues were taken from patients (n = 5) who underwent surgical nephrectomy due to renal cell carcinoma or renal rupture (Table S1 in Supplementary Material). There was no statistical difference in term of age between the LN patients and the controls (p > 0.05). […] The MRL/lpr and MRL/MpJ mice (female, 12 or 24 weeks old, n = 5 each group) as well as SCID mice (female, 8 weeks old, n = 5 each group) were bred in the animal facility of Xi’an Jiaotong University Health Science Center. Urine, sera, and renal tissues were harvested from MRL/lpr and MRL/MpJ mice. Proteinuria was quantitated by the Coomassie brilliant blue method ([32]). […]
# as §3
# mesangial cells = experiment: Real-time PCR, mesangial cells; assay type: cell-based, murine; settings: anti-dsDNA IgG 2 µg/ml premixed with peptide 1 µg/ml, 2 days
# Method: as §1, §2
# As previously described ([8]), total RNA was extracted from fresh tissues or cultured cells, followed by reverse transcription. The 7900HT Fast PCR System (Applied Biosystems, Carlsbad, CA, USA) was used for PCR, and SYBR Green Master Mixes (Invitrogen, Grand Island, NY, USA) was used as fluorescent dye. The sequences of primers (Jieqing Biotech) are listed in Table S2 in Supplementary Material.
# [4] = system: proximal tubular epithelial cells; experiment: Cell viability (PrestoBlue), proximal tubular epithelial cells; assay type: cell-based, murine; settings: D-form ALW 1 µg/ml, 2 days
# Method: as §2
# Mesangial Glomerular Tubular cells endothelial epithelial
# Supplementary Figure S7. Cell viability assays of kidney cells. (A) Murine cells were cultured in vitro, and received control or anti-dsDNA IgG stimulation (2 µg/ml, 2 days). (B) Similarly, these cells were also stimulated with scrambled or D-form ALW peptide (1 µg/ml, 2 days). The cell viability was measured using PrestoBlue viability reagent. Data were from three independent experiments. Data points and error bars […]
# (also on this page, place not known: µ g/ml,2 µ g/ml,2 Cell viability (%) Cell viability (%))
sequence,measurement,setting,value
"ALWPPNLHAWVP [D-form ALW, ALW peptide with two terminal residues A and P replaced with D-form ones]",inhibition of anti-dsDNA IgG binding to SOCS1-KIR peptide,[1],inhibited
same,"JAK2 protein, ALW plus anti-dsDNA IgG (consistent with mRNA decrease)",[2],consistent changes
same,"SOCS1 protein level, ALW plus anti-dsDNA IgG",[2],increased
same,"STAT1 protein, ALW plus anti-dsDNA IgG (consistent with mRNA decrease)",[2],consistent changes
same,"renal JAK2 protein expression level, ALW plus anti-dsDNA IgG",[3],remarkable attenuation
same,"renal STAT1 protein expression level, ALW plus anti-dsDNA IgG",[3],remarkable attenuation
same,"CTGF mRNA expression level, ALW plus anti-dsDNA IgG",mesangial cells,significantly reduced
same,"Fn14 mRNA expression level, ALW plus anti-dsDNA IgG",mesangial cells,significantly reduced
same,"JAK2 mRNA level, ALW plus anti-dsDNA IgG",mesangial cells,decreased
same,"PDGFB mRNA expression level, ALW plus anti-dsDNA IgG",mesangial cells,significantly reduced
same,"SOCS1 mRNA expression level, ALW plus anti-dsDNA IgG",mesangial cells,did not affect
same,"STAT1 mRNA level, ALW plus anti-dsDNA IgG",mesangial cells,decreased
same,cell viability,[4],no changes
